# Laboratory results published in PubChem BioAssay AID1963430 (Molecular Pharmacology Branch, DTP, NCI, 2024).
# “And” between values parts separate entries of the source, which are not always exact repeats. Equal values may be shown once.
# System: 521955-158-R2-J5-PDC complex spheroid growth, % test/control
# Assay: Anticancer human tumor 521955-158-R2-J5-PDC patient-derived pancreatic carcinoma cell line growth inhibition [Asc]
# Conditions: for viability, T/C: stronger effect = lower value
# In short: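 Tumor cells were grown as complex spheroids with human endothelial cells (HUVEC) and human mesenchymal stem cells as stroma. Agents were tested alone and in combination, in half-log steps down from the clinical Cmax, or from 10 microM where Cmax was unknown.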
# 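Also: spheroids exposed to agents for 7 days before readout.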
# 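For viability, T/C in this document: 100% = DMSO vehicle control viability.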
structure (smiles),measurement,setting,value
CCN1C(C(=O)NC23CCC(C(=O)O)(CC2)CC3)C(c2cccc(Cl)c2F)C2(C(=O)Nc3cc(Cl)ccc32)C12CCCCC2 (configuration not stated) + Cc1c(S(C)(=O)=O)c(-c2cc(F)cc(N3CCN(c4ccc(NS(=O)(=O)c5ccc(NC(CCN6CCC(C(=O)OCCCP(=O)(O)O)CC6)CSc6ccccc6)c(S(=O)(=O)C(F)(F)F)c5)cc4)CC3)c2)c(-c2ccc(Cl)cc2)n1C(C)C,IC50,"curve of first compound, second compound 0.1 µM",> 3 µM
same,IC50,"curve of first compound, second compound 0.316 µM",> 3 µM
same,IC50,"curve of first compound, second compound 1 µM",> 3 µM
same,IC50,"curve of first compound, second compound 3.16 µM",> 3 µM
same,IC50,"curve of first compound, second compound 10 µM",> 3 µM
same,"viability, T/C","second compound 0.1 µM, first compound 0.00949 µM",70.7%
same,"viability, T/C","second compound 0.1 µM, first compound 0.03 µM",80.8%
same,"viability, T/C","second compound 0.1 µM, first compound 0.0949 µM",54.6%
same,"viability, T/C","second compound 0.1 µM, first compound 0.3 µM",95%
same,"viability, T/C","second compound 0.1 µM, first compound 0.949 µM",76.5%
same,"viability, T/C","second compound 0.1 µM, first compound 3 µM",92.6%
same,"viability, T/C","second compound 0.316 µM, first compound 0.00949 µM",73.3%
same,"viability, T/C","second compound 0.316 µM, first compound 0.03 µM",90.4%
same,"viability, T/C","second compound 0.316 µM, first compound 0.0949 µM",61.1%
same,"viability, T/C","second compound 0.316 µM, first compound 0.3 µM",72.8%
same,"viability, T/C","second compound 0.316 µM, first compound 0.949 µM",76%
same,"viability, T/C","second compound 0.316 µM, first compound 3 µM",89.6%
same,"viability, T/C","second compound 1 µM, first compound 0.00949 µM",66.2%
same,"viability, T/C","second compound 1 µM, first compound 0.03 µM",91%
same,"viability, T/C","second compound 1 µM, first compound 0.0949 µM",69.4%
same,"viability, T/C","second compound 1 µM, first compound 0.3 µM",74.1%
same,"viability, T/C","second compound 1 µM, first compound 0.949 µM",67.7%
same,"viability, T/C","second compound 1 µM, first compound 3 µM",64.5%
same,"viability, T/C","second compound 3.16 µM, first compound 0.00949 µM",111%
same,"viability, T/C","second compound 3.16 µM, first compound 0.03 µM",91.7%
same,"viability, T/C","second compound 3.16 µM, first compound 0.0949 µM",86.1%
same,"viability, T/C","second compound 3.16 µM, first compound 0.3 µM",100%
same,"viability, T/C","second compound 3.16 µM, first compound 0.949 µM",77%
same,"viability, T/C","second compound 3.16 µM, first compound 3 µM",76.7%
same,"viability, T/C","second compound 10 µM, first compound 0.00949 µM",151%
same,"viability, T/C","second compound 10 µM, first compound 0.03 µM",153%
same,"viability, T/C","second compound 10 µM, first compound 0.0949 µM",166%
same,"viability, T/C","second compound 10 µM, first compound 0.3 µM",169%
same,"viability, T/C","second compound 10 µM, first compound 0.949 µM",107%
same,"viability, T/C","second compound 10 µM, first compound 3 µM",112%
NC1CCC(NC2CC2c2ccccc2)CC1 (configuration not stated),"viability, T/C",compound 0.000316 µM,63.1% and 63.5% and 88.5%
same,"viability, T/C",compound 0.001 µM,57% and 64.8% and 83.1%
same,"viability, T/C",compound 0.00316 µM,52.8% and 60% and 75.8%
same,"viability, T/C",compound 0.01 µM,68.5% and 49.6% and 95%
same,"viability, T/C",compound 0.0316 µM,58.5% and 56.5% and 90.8%
same,"viability, T/C",compound 0.1 µM,60% and 61.9% and 74%
same,IC50,curve of compound,> 0.1 µM
C=C(F)C(=O)N1CCN(c2nc(OCC3CCCN3C)nc3c2CCN(c2cccc4cccc(Cl)c24)C3)CC1CC#N (configuration not stated),"viability, T/C",compound 0.0316 µM,68.6% and 77.1% and 84.2%
same,"viability, T/C",compound 0.1 µM,89% and 77.1% and 94.1%
same,"viability, T/C",compound 0.316 µM,78.8% and 86.1% and 107%
same,"viability, T/C",compound 1 µM,105% and 95.4% and 98.1%
same,"viability, T/C",compound 3.16 µM,115% and 136% and 120%
same,"viability, T/C",compound 10 µM,0.29% and 0.32% (2×)
same,IC50,curve of compound,5.33 µM and 5.44 µM and 5.66 µM
CNC(C)C(=O)NC1CN(S(=O)(=O)c2cccc(S(=O)(=O)N3CCC4CCC(C(=O)NC(c5ccccc5)c5ccccc5)N4C(=O)C(NC(=O)C(C)NC)C3)c2)CCC2CCC(C(=O)NC(c3ccccc3)c3ccccc3)N2C1=O (configuration not stated),"viability, T/C",compound 0.00316 µM,72.5% and 68.6%
same,IC50,"compound alone, run of 10/03/2022",> 1 µM
same,IC50,curve of compound,> 1 µM
